Results published in patent US20050026833A1, “PSP-94: use for treatment of hypercalcemia and bone metastasis” (priority 2001, published 2005).

Test system: Mat Ly Lu-PTHrP skeletal metastasis
Assay: Bone histomorphometry of vertebrae (tumor volume to bone volume)
Assay type: in vivo, male Copenhagen rats
Protocol: Alternatively, cell pellets (10×10^3 cells) were resuspended in 100ul saline and injected using 1 ml syringes into the left ventricle of rats anaesthetised with ketamine/xylazine cocktail. […] The time after tumor cell inoculation which was required to develop hind limb paralysis (an index of spinal cord compression due to lumbar vertebrae metastasis) was determined and percentage of starting number of animals developing hind-limb paralysis was plotted. […]
Computer-Assisted Image Analysis. Computer-assisted image analysis was carried out to quantify PTHrP immunostaining and determination of % TV/BV in the vertebral sections. […] The threshold was set by determining the positive staining of control sections and was used to automatically analyze all recorded images of all samples that were stained in the same session under identical conditions. The area of stained regions was calculated automatically by the software in each microscopic field. Pixel counts of the immunoreaction product were calculated automatically and were given as total density of the integrated immunostaining over a given area. […]

## E W Q T D N C E T C T C Y E T (EWQTDNCETCTCYET; PCK3145 (polypeptide 31-45))
100.0 ug/kg PCK3145, day 10 post inoculation, vs vehicle
  ratio of tumor volume to bone volume (TV/BV): significant decrease
100.0 ug/kg/day PCK3145, day 10, vs vehicle
  trabecular and cortical bone destruction with compression of the spinal cord: significantly less
